Measurements from patent EP1223923B1, “UNSATURATED ARYL SULFONES FOR PROTECTING NORMAL CELLS FROM CYTOTOXICITY OF CHEMOTHERAPEUTIC AGENTS” (Temple University - Of The Commonwealth System of Higher …, priority 1999, dated 2001).

Experiments:
Type in all cases: cell-based
[1] = test system: Normal human HFL-1 cells; assay: Cytoprotection assay against paclitaxel; design: key: +: A compound was deemed to be active if the number of viable cells following the combination treatment was higher than the number of cells after treatment with paclitaxel alone; conditions: 2.0 or 10 µM sulfone; paclitaxel (250 nM) at time zero or 24 hours later; viable cells after 96 hours of paclitaxel
Experimental: The cytoprotective activity of the same styryl benzylsulfones was determined as follows. Normal human HFL-1 cells were plated at a cell density of 1.0 x 10^5 cells per well in six culture plates. Styryl benzylsulfone was added 24 hours later at a final concentration of either 2.0 or 10 µM. The time of styryl sulfone addition was designated as time zero. Paclitaxel (250 nM) was added at either time zero, or 24 hours after time zero. The total number of viable cells was determined, as described above, after 96 hours of paclitaxel treatment. A compound was deemed to be active if the number of viable cells following the combination treatment was higher than the number of cells after treatment with paclitaxel alone. Table 7: Antitumor and Cytoprotective Effect of Styryl Sulfones

[2] = Plating efficiency (colony-forming ability) of normal human fibroblasts; conditions: hfl-1 cells, 24 hour incubation with drug, replated, colonies counted after 20 days, read-out: concentration of the drug causing 50% inhibition in plating efficiency
Experimental: HFL-1 cells (normal, human diploid lung fibroblasts) purchased from ATCC were plated after first passage at low density (2.0 x 10^5cells) per well (6 well dishes) in one ml of growth medium (DMEM completed with 10% fetal bovine serum and pen/strep). Twenty-four hours later, (E)-4-fluorostyryl-4-chlorobenzylsulfone was added to each well at the following final concentrations; 0 µM, 2.5. µM, 5.0 µM, 25 µM, 50 µM, and 75 µM. After a 24 hour incubation period, the wells were washed 3x with 5 ml normal growth medium and each well was trypsinized and cell counts were determined. To determine colony-forming ability, the cells from each treatment were then serial diluted and replated into 100mm dishes such that each group was split into 3 replating groups consisting of 10, 100, 200 cells per plate. The groups were plated in triplicate. The cells were incubated for 20 days under normal growth conditions and colonies were counted after staining with modified Wright stain (Sigma). The number of colonies from each plate in triplicate were determined and the average for each group was plotted. The concentration of the drug causing 50% inhibition in plating efficiency was calculated and found to be 70 µM.

[3] = test system: HFL-1 cells; assay: Protection of normal human fibroblasts from anticancer agent cytotoxicity (protection ratio, Trypan blue exclusion); conditions: 2.0 µM sulfone 24 hour preincubation, viable cells 96 hours after cytotoxic agent
Experimental: HFL-1 cells were plated at a cell density of 1.0 x 10^5 in 1 ml of medium. Twenty-four hours following plating, 2.0 µM of (E)-4-fluorostyryl-4-chlorobenzylsulfone was added to the medium. Following a 24 hour preincubation with the styryl sulfone, the various cytotoxic agents listed in Table 6 were added to the cells, at the concentrations given in Table 6. the number of viable cells was determined by Trypan blue exclusion using a hematocytometer 96 hours after exposure to cytotoxic agent. The "Protection Ratio" is the number of viable cells following treatment with (E)-4-fluorostyryl-4-chlorobenzylsulfone and cytotoxic agent, divided by the number of viable cells remaining after treatment with cytotoxic agent alone. A protection ratio of 2 or more is considered highly significant, while is protection ratio of 1.5-2 is considered less significant. […] Table 6: Protective Effect of (E)-4-Fluorostyryl-4-Chlorobenzylsulfone on HFL-1 Cells Treated with Cytotoxic Drugs

In the case of O=C(O)c1ccc(/C=C/S(=O)(=O)Cc2ccc(Cl)cc2)cc1 [Example 10, (E)-4-carboxystyryl-chlorobenzyl sulfone], the Cytoprotection [1] is reported as “+”.

In the case of O=C(C(=Cc1ccc(F)cc1)S(=O)(=O)c1ccccc1)c1ccccc1 [Example 12, 2-(phenylsulfonyl)-1-phenyl-3-(4-fluorophenyl)-2-propen-1-one], the Cytoprotection [1] is reported as “+”.

For O=S(=O)(/C=C/c1ccc(F)cc1)Cc1ccc(Cl)cc1Cl [Example 11, (E)-4-fluorostyryl-2,4-dichlorobenzyl sulfone], the Cytoprotection [1] was “+”.

In the case of O=S(=O)(/C=C/c1ccc(F)cc1Cl)Cc1ccc(Cl)cc1 [Example 9, (E)-2-chbro-4-fluorostryryl4-chlorobenzl sulfone], the Cytoprotection [1] is reported as “+”.

In the case of O=S(=O)(/C=C/c1ccc(F)cc1)Cc1ccc(Cl)cc1 [Example 7, (E)-4-fluorostyryl-4-chlorobenzyl sulfone], the CC50 at 24 h [2] is reported as 70 µM, the “Protection Ratio” value ([3]; 5-fluorouracil 20 µM (DNA antimetabolite)) is reported as 1.3 and the “Protection Ratio” value ([3]; camptothecin 0.5 µM (topoisomerase I inhibitor)) is reported as 2.1. The “Protection Ratio” value ([3]; cisplatin 5.0 µM (alkylating agent)) was 1.3, the “Protection Ratio” value ([3]; doxorubicin 0.4 µM (topoisomerase II inhibitor)) was 1.5 and the “Protection Ratio” value ([3]; etoposide 3.0 µM (topoisomerase II inhibitor)) was 3.5. The “Protection Ratio” value ([3]; mitoxantrone 0.3 µM (topoisomerase II inhibitor)) was 2.0, the “Protection Ratio” value ([3]; paclitaxel 0.25 µM (antimitotic)) was 2.5 and the “Protection Ratio” value ([3]; vincristine 0.25 µM (antimitotic)) was 3.0. The Cytoprotection [1] was “+”.

For O=S(=O)(/C=C/c1ccc(Cl)cc1)Cc1ccc(Cl)cc1 [Example 8, (E)-4-chlorostyryl-4-chlorobenzyl sulfones], the Cytoprotection [1] was “+”.
